{"source": "patent US11672786B2", "about": "“Methods of treating diseases associated with repeat instability” (The Hospital for Sick Children, priority 2016, dated 2023)", "key": {"[1]": {"system": "long (CTG)20 slip-outs from (CAG)30●(CTG)50", "test": "band-shift NA-DNA binding, long (CTG)20 slip-out", "parameters": "species or system human", "conditions": "NA 0.15-50 μM, 4% polyacrylamide gel", "excerpt": "FIG. 2 are the results of experiments showing that NA binds to long CAG slip-outs. […] The (CAG)n DNA sequence (left) can fold into an hairpin structure involving mismatched A-A pair flanking C-G base pairs (middle). NA molecules can intercalate into the DNA helix, with the 2-amino-1,8-naphthyridine moiety (in red) hydrogen bonding to guanine and 8-azaquinolone moiety (in blue) hydrogen bonding to adenine. […] Long slip-outs extruded as a single slip-out from a fully base-paired backbone of (CTG)n●(CAG)n, as described (Pearson et al., 2002, Nuc. Acids Res., 30:4534-47). DNAs were mixed with increasing concentrations of NA (0.15 μM, 0.75 μM, 7.5 μM and 50 μM) and resolved on 4% polyacrylamide gels. All lanes are from the same gel, and they were separated for clarity. NA-DNA complexes are shown by brackets, free DNA is indicated by arrowheads. […] The relative migration was measured for the linear and the three slip-outs substrates as the ratio of the migration distance of each NA-DNA complex to the migration distance of the free DNA. The migration distance was measured from the well to a consistent center point of each band. […]"}, "[2]": {"system": "transgene transcript in the CAG-direction, HT1080-(CAG)850 cells", "test": "transgene mRNA quantification by quantitative RT-PCR", "type": "cell-based, human", "conditions": "NA 50 μM, 72 hr", "excerpt": "FIG. 5 are results from experiments showing that NA induces CAG contractions in HT1080-(CAG)850 cells, independent of proliferation, dependent upon rCAG transcription. […] Panel B of FIG. 5 are histograms showing repeat length distributions in HT1080-(CAG)850 cells. Frequency distribution of unstable alleles is shown by gray bars. Frequency of stable alleles is shown by black bars. To facilitate comparisons, a dashed line indicates the unchanged CAG size. Allele lengths are grouped in bins spanning 50 repeats. […] More than 50 alleles were sized for each group. P-value was calculated by chi-square test (Table 2). […] P-value was calculated by Student's t-test. […] Quantitative reverse transcription (RT)-PCR was performed using TaqMan Gene Expression assays. […]\nRNA was harvested from the HT1080-(CAG)850 cells at 72 hr after adding or not adding NA using the RNeasy Plus Micro Kit (Qiagen). Total RNA was primed with random hexamers and reverse transcribed with Superscript III (Life Technologies, Carlsbad, Calif.), followed by treatment with RNase H. Quantitative reverse transcription (RT)-PCR was performed using TaqMan Gene Expression assays or PrimeTime qPCR assays on an ABI PRISM 7900HT Sequence Detection System (Life Technologies) and the primer sequences shown in Table 1. […] The results were statistically analyzed using paired t-tests. […]"}, "[3]": {"system": "plasmid harboring (CAG)79●(CTG)79 repeats, R-loops", "test": "in vitro transcription, R-loop formation, RNase A/H processing and R-loop stability", "type": "biochemical", "description": "Reaction products were then treated with RNase A (labeled “A”), to cleave all single-stranded RNAs, and resolved on 1% agarose gel. Control treatment with RNaseH (labeled “H”), eliminating RNA:DNA hybrids, was performed to reveal the RNA-free supercoiled DNAs. […] Reaction products then were resolved on 1% agarose gel. […] Double-R-loops were then treated with RNaseA or H (labeled “A” or “H”) and incubated with NA (50 μM). Reaction products were then resolved on 1% agarose gel. […] The position of supercoiled plasmid in dimer or monomer form is indicated by “SC”. The top “SC” represents linked dimers and the bottom “SC” represents monomers. In Panels C, D, and E, NA was either included in the transcription reaction (Panel C), only in the RNAse A/H reaction, only following the RNAse A/H clean-up.\nTranscription reactions were performed as previously described (Reddy et al., 2014, Nuc. Acids Res., 42:10473-87). Briefly, 500 ng of template DNA in 1× transcription buffer (Roche) and 1× bovine serum albumin (NEB) were mixed for 1 h with 20 U of the appropriate RNA polymerase: T7, T3 or T7+T3 (Roche), with or without NA 120 μM. Samples were purified and then treated with either 1 g of RNase A (Roche) alone or with 1 g of RNase A (Roche) and 1 U of E. coli RNase H (Roche), at room temperature for 30 min, in the presence or in the absence of NA (120 μM). All in vitro transcription reaction products were analyzed on 1% agarose gels run in 1×TBE buffer at 80 V for 3 h. Gels were subsequently stained with ethidium bromide (0.5 mg/ml) to allow visualization of total nucleic acid under ultraviolet (UV) light."}}, "data": [{"substance": "naphthyridine-azaquinolone", "values": [{"measurement": "NA binding (band-shift)", "setting": "[1]", "result": "not bound"}, {"measurement": "effect on RNA transcript levels of transgene", "setting": "[2]", "result": "did not affect transcription of the CAG-repeats containing transcript"}, {"measurement": "effect on biophysical stability of R-loops", "setting": "[3]; NA 50 μM or 500 μM", "result": "did not affect the biophysical stability of R-loops"}, {"measurement": "effect on R-loop formation", "setting": "[3]; NA 120 μM during transcription", "result": "did not affect R-loop formation"}, {"measurement": "effect on transcription in vitro", "setting": "[3]; T3 or T7 RNA polymerases", "result": "nor did it affect transcription in vitro"}]}]}
